Consider one compound from US20120028917A1, “Use Of N-(4-((3-(2-Amino-4-Pyrimidinyl)-2-Pyridinyl)Oxy)Phenyl)-4-(4-Methyl-2-Thienyl)-1-Phthalazinamine In The Treatment Of Antimitotic Agent Resistant Cancer” (Amgen Inc., priority 2009, published 2012).

Structures are written as SMILES. Where “and” joins values, the source holds several entries; their conditions need not be identical. Equal values may be shown once. Marks after values point to notes of the source that are not given here.

Test [1] deals with 32 human tumor cell lines. The test is described as follows: Antiproliferative effect across tumor cell line panel (summary). In kind it is cell-based. The conditions noted are these: across solid and hematologic tumor cell lines (Tables 1 and 2). Here is the method:
Tumor cells were seeded in a Packard View 96-well plate in 100 μL of appropriate complete media at a density of 3000 or 5000 cells/well depending on the cell line growth kinetics (broadly defined as slow vs. fast). All dilutions were performed using Biomek FX workstation. The next day cells were treated with AMG 900 (11-point dose range 0.156 to 0.0003 μM) with a final DMSO concentration of 0.12% in media. After 24 hours, the media containing compound was removed and the cells were washed with complete media. The cells were then incubated in 100 μL of fresh complete media (without compound) for 48 hours. After 48 hours, the cells were fixed by adding 100 μL of fixation buffer to 100 μL of complete media. […] Quantification of individual cell nuclear area and intensity was performed based on Hoechst 33342 DNA dye fluorescence. A threshold on the nuclear area based on the DMSO-treated control well was set to quantify the number of normal size nuclei from nuclear debris and polyploidy cells. […] The dose-concentration curves and EC50 values were calculated using a 4-parameter equation.
Tumor cells were seeded in a 300 μL deep 96-well plate in 150 μL of appropriate complete media at a density of 100,000 cells/well. […] Data was acquired and analyzed by flow cytometer (LSRII). […] The concentration-response curves and EC50 values were calculated using a 4-parameter equation.

The test system of the next test is HCT-15 (MDR) xenograft. The test is described as follows: Xenograft tumor growth inhibition (Example 7). In kind it is in vivo, mice. The settings on record: Colon, oral 15 mg/kg b.i.d. 2 consecutive days per week or 3 mg/kg b.i.d. every day, 3 weeks. Here is the method: (§1) The in-vivo effect of AMG 900 on tumor growth was further evaluated in a panel of human xenografts from five different tumor types (breast, colon, lung, pancreatic, and uterine), including three MDR xenograft models. Mice bearing established tumors were orally administered AMG 900 at 15 mg/kg b.i.d. for 2 consecutive days per week for 3 weeks or at 3 mg/kg b.i.d. every day for 3 weeks. The maximum percentage of tumor growth inhibition (TGI) is reported, in Table 7 below, for each xenograft model. The percentage of TGI was calculated as the difference between the change in vehicle-treated control and AMG 900-treated tumor volumes during the study period.

The next test concerns MES-SA xenograft. The test can be described thus: Xenograft tumor growth inhibition (Example 7). The settings on record: Uterine, oral 15 mg/kg b.i.d. 2 consecutive days per week or 3 mg/kg b.i.d. every day, 3 weeks. In kind it is in vivo, mice. Here is the method:
as §1

The subject of the next test is NCI-H460 xenograft. The test is described as follows: Xenograft tumor growth inhibition (Example 7). The settings on record: NCI-H460, Lung; oral 15 mg/kg b.i.d. 2 consecutive days per week or 3 mg/kg b.i.d. every day, 3 weeks. In kind it is in vivo, mice. Here is the method: as §1
The test system of the next test is MiaPaCa2 xenograft. The test is described as follows: Xenograft tumor growth inhibition (Example 7). The settings on record: MiaPaCa2, Pancreas; oral 15 mg/kg b.i.d. 2 consecutive days per week or 3 mg/kg b.i.d. every day, 3 weeks. The class given is in vivo, mice. Here is the method: as §1
Another test concerns MDA-MB-231 xenograft. The test can be described thus: Xenograft tumor growth inhibition (Example 7). The settings on record: MDA-MB-231, Breast; oral 15 mg/kg b.i.d. 2 consecutive days per week or 3 mg/kg b.i.d. every day, 3 weeks. In kind it is in vivo, mice. Here is the method: as §1
Test [2] deals with MES-SA-Dx5 (MDR) xenograft. The test can be described thus: Xenograft tumor growth inhibition (Example 7). In kind it is in vivo, mice. The settings on record: Uterine, oral 15 mg/kg b.i.d. 2 consecutive days per week or 3 mg/kg b.i.d. every day, 3 weeks. Here is the method:
as §1

A further test deals with COLO 205 xenograft. The test can be described thus: Xenograft tumor growth inhibition (Example 7). In kind it is in vivo, mice. The settings on record: COLO 205, Colon; oral 15 mg/kg b.i.d. 2 consecutive days per week or 3 mg/kg b.i.d. every day, 3 weeks. Here is the method: as §1
Test [3] concerns NCI-H460-PTX (MDR) xenograft. The test is described as follows: Xenograft tumor growth inhibition (Example 7). The class given is in vivo, mice. The settings on record: Lung, oral 15 mg/kg b.i.d. 2 consecutive days per week or 3 mg/kg b.i.d. every day, 3 weeks. Here is the method: as §1
For another test, the system named is HCT116 xenograft. The test is described as follows: Xenograft tumor growth inhibition (Example 7). The class given is in vivo, mice. The settings on record: HCT116, Colon; oral 15 mg/kg b.i.d. 2 consecutive days per week or 3 mg/kg b.i.d. every day, 3 weeks. Here is the method: Mice were injected subcutaneously with 2×10^6 human HCT 116 colon tumor cells. When tumors were established (approximately 200 mm^3), mice were randomized into experimental treatment groups (n=10) and treated orally with AMG 900 at 1.5, 2.25 or 3 mg/kg everyday or, 3.75, 7.5 or 15 mg/kg intermittently for the duration of the experiment. Mice were provided nutritional supplements on a daily basis. Tumor volumes and body weights were recorded twice per week using caliper and analytical digital scale, respectfully. Tumor data were represented by mean tumor volume +/−SEM. Statistical significance for tumor growth inhibition was determined by repeated measurements ANOVA (RMANOVA) followed by Scheffe post-hoc analysis.
as §1

Take `Cc1csc(-c2nnc(Nc3ccc(Oc4ncccc4-c4ccnc(N)n4)cc3)c3ccccc23)c1` [AMG 900, N-(4-((3-(2-amino-4-pyrimidinyl)-2-pyridinyl)oxy)phenyl)-4-(4-methyl-2-thienyl)-1-phthalazinamine]: in [1], the concentration for a half-maximal effect (EC50) was 1 to 5 nM. In addition, the “Maximum TGI (%)” value in the test with HCT-15 (MDR) xenograft is 50* %; in the test with MES-SA xenograft, 87** %; in the test on NCI-H460 xenograft it was 85** %; in the test with MiaPaCa2 xenograft, 60** %; in the test with MDA-MB-231 xenograft, 82** %; in test [2], 84%. The “Maximum TGI (%)” value is 73* % in the test on COLO 205 xenograft; 66% and 65** % in test [3]; 85** % in the test with HCT116 xenograft.
